Measurements published in ChEMBL document CHEMBL2074393, “Impact of Mrp2 on the biliary excretion and intestinal absorption of furosemide, probenecid, and methotrexate using Eisai hyperbilirubinemic rats” (Pharm Res, 2003).

Key:
[1] = molecular target: T1, ATP-binding cassette sub-family C member 2 (Rattus norvegicus, UniProt Q63120); test: TP_TRANSPORTER: In vivo biliary excretion of SDR rat; type: functional, organism-based, Sprague-Dawley, Bile
[2] = molecular target: T1, ATP-binding cassette sub-family C member 2; test: TP_TRANSPORTER: In vivo biliary excretion in vivo, biliary excretion of SDR and EHBR rat; type: functional, organism-based, Bile

T1 sequence (Q63120 whole entry): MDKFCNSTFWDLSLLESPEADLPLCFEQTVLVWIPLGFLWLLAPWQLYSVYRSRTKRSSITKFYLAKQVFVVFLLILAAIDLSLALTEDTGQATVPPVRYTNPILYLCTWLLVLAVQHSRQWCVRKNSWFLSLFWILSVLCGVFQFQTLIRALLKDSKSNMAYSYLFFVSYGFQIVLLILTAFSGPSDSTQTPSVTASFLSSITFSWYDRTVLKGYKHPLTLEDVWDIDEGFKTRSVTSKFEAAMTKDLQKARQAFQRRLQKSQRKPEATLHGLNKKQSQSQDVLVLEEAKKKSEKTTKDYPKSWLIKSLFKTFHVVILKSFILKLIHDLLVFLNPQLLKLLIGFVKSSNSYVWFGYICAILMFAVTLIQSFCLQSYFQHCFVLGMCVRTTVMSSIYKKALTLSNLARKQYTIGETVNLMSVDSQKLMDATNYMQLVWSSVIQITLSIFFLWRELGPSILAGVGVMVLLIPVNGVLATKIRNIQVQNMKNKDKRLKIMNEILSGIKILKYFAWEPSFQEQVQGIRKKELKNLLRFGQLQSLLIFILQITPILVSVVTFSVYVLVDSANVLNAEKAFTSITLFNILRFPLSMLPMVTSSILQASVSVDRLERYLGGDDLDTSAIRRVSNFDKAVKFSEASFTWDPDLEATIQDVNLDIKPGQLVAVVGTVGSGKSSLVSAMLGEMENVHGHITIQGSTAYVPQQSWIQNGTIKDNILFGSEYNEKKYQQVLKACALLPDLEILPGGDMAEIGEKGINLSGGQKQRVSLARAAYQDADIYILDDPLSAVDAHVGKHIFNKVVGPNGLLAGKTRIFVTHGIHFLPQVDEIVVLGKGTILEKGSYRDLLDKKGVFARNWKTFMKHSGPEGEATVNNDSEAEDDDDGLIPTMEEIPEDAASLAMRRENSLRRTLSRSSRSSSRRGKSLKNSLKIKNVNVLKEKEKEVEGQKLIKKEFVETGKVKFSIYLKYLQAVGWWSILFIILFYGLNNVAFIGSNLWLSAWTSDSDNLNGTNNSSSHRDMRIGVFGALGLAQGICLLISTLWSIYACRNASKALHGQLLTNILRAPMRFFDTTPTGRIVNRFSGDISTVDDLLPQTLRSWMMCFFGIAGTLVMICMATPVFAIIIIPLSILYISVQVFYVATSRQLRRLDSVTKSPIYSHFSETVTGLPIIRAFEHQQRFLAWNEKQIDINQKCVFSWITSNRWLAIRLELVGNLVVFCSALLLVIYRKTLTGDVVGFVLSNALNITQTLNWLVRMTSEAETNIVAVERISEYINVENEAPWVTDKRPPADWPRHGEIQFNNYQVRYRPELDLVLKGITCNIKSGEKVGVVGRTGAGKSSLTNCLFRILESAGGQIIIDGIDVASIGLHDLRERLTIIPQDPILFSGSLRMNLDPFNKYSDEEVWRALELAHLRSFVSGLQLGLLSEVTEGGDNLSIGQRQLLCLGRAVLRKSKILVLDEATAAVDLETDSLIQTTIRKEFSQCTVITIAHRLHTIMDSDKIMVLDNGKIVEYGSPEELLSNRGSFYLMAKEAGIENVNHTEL

| Activity [1] | Activity [2] | Structure (SMILES) |
| --- | --- | --- |
| substrate [] | substrate [] | CN(Cc1cnc2nc(N)nc(N)c2n1)c1ccc(C(=O)N[C@@H](CCC(=O)O)C(=O)O)cc1 [METHOTREXATE] |
| substrate [] | substrate [] | CCCN(CCC)S(=O)(=O)c1ccc(C(=O)O)cc1 [PROBENECID] |
